These results are taken from patent publication US12220393B2, “Compositions and methods for the treatment of zika viral diseases” (The ProImmune Company LLC, priority 2017, dated 2025).

Assay [1] relates to Zika virus. As to the kind of experiment: Quantification of Zika virus titers in infected Vero cells. It is filed as cell-based. As to conditions: BSO 200 μM, MOI 0.1. As to the method:
(§1) FIGS. 4A and 4B show effect of FFAAP on total intracellular GSH and Zika virus replication in Zika virus infected Vero cells (ZIKV). Vero cells, grown to approximately 90-95% confluence (mid-log phase), were treated with and grown in the presence of increasing concentrations of FFAAP for 3 days. At each time point, medium was discarded and cells were harvested to measure intracellular concentrations of total GSH. […] All experiments shown were performed in triplicates and the data shown are representative data from multiple independent experiments. Standard error bars were calculated using Microsoft Excel and significance assessments were performed using GRAPHPAD PRISM. * indicates a p-value <0.05 and >0.01; ** indicates a p-value <0.01 and >0.001; and *** indicates a p-value <0.001.
(§2) FIG. 5A-5D show effects of inhibition of glutathione biosynthesis on Zika virus replication in Vero cells. […] Standard error bars were calculated using Microsoft Excel and significance assessments were performed using GRAPHPAD PRISM. * indicates a p-value <0.05 and >0.01; ** indicates a p-value <0.01 and >0.001; and *** indicates a p-value <0.001.
FFAAP treatment of cells. […] Cells infected with Zika virus were treated with the above concentration 1.5 hours post adsorption for quantification of virus titers. […]

For assay [2], the system named is Zika virus. The experiment in a line: Quantification of Zika virus titers in infected JEG-3 cells. As to conditions: BSO 200 μM. It is filed as cell-based. As to the method: (§3) FIGS. 6A-6D show effects of inhibition of glutathione biosynthesis on Zika virus replication in JEG-3 cells. […] All experiments were performed in triplicates and the data shown are representative data from multiple independent experiments. Standard error bars were calculated using Microsoft Excel and significance assessments were performed using GRAPHPAD PRISM. * indicates a p-value <0.05 and >0.01; ** indicates a p-value <0.01 and >0.001; and *** indicates a p-value <0.001.
FFAAP treatment of cells. […] Cells infected with Zika virus were treated with the above concentration 1.5 hours post adsorption for quantification of virus titers. For plaque enumeration assay cells were treated with FFAAP at the time of adsorption and the treatment was continued for 3 days in semi-solid medium. For these assays the final concentrations in the cell culture medium of the infected and uninfected cells were 0, 2.5, 5.0, and 10 mM FFAAP from solubilized stock solution prepared for FFAAP. Inhibitory concentration (IC50) was used as per definitions provided by GRAPHPAD Software) to evaluate dose-response curves.
Approximately 95% sub-confluent Vero cells or JEG-3 cells were infected Zika in a 48-well plate. After 1.5 hours post-adsorption (HPA), virus inoculum was removed and media with or without FFAAP was added to the respective wells. […]

Assay [3] concerns total intracellular glutathione (GSH+GSSG). As to the kind of experiment: Total intracellular glutathione in uninfected Vero cells. It is filed as cell-based, African green monkey (Chlorocebus sp.). The following applies: BSO treatment, initial studies. The method, then: African green monkey (Chlorocebus sp.) Vero cells, grown to approximately 90-95% confluence (mid-log phase), were treated with and grown in the presence of increasing concentrations of FFAAP for three days. At each time point, medium was discarded and cells were harvested to measure intracellular concentrations of total GSH. All experiments shown were done in triplicate and the data shown are representative data from multiple independent experiments performed. Standard error bars were calculated using MICROSOFT EXCEL and significance assessments were performed using GRAPHPAD PRISM. * indicates a p-value <0.05 and >0.01; ** indicates a p-value <0.01 and >0.001; and *** indicates a p-value <0.001.
Uninfected Vero cells were treated with 0, 2, 4, 6 mM concentrations of free-form amino acid precursors (FFAAP) for 72 hours. Vero cells infected with Zika virus were treated with the above concentration immediately for quantification of virus titers. […]
(§4) Glutathione Precursors and Glutathione Assays. […] Effective blockade was assessed by measurements of intracellular reduced and oxidized glutathione in the presence of inhibitor.
To determine the levels of intracellular glutathione in uninfected cells, FFAAP-treated and untreated cells, we quantified GSH/GSSG levels in each cell line over three days. Growth and viability of the cells were also assessed. […]

In assay [4] the test system is total intracellular glutathione. As to the kind of experiment: Total intracellular glutathione in Zika virus infected Vero cells. As to conditions: by 48 hours post BSO-treatment. It is filed as cell-based, African green monkey (Chlorocebus sp.). The method, then:
as §1, §2, §4

For assay [5], the system named is intracellular glutathione. As to the kind of experiment: Intracellular glutathione in JEG-3 cells. It is filed as cell-based, human. As to the method: as §3
FIGS. 7A-F show total intracellular GSH concentrations in various cells that were treated with BSO, FFAAP, and a combination of BSO and FFAAP at day 0 and day 2. FIGS. 7A-7C show intracellular GSH concentration in African green monkey (Chlorocebus sp.) Vero cells. […]
Glutathione Precursors and Glutathione Assays. […] Intracellular glutathione levels (GSSG/GSH) were measured to quantify the levels of newly biosynthesized intracellular glutathione with molar quantities calculated using standard curves prepared with reduced and oxidized glutathione (Enzo Life Sciences, Farmingdale, NY), Standard error of the mean (SEM) was calculated using values from triplicate samples and coefficient of variance was calculated within each sample for each specific treatment group. […] Effective blockade was assessed by measurements of intracellular reduced and oxidized glutathione in the presence of inhibitor.

Regarding `CCCCS(=N)(=O)CC[C@H](N)C(=O)O` (stereo partly drawn) [BSO, buthionine-(S,R)-sulfoximine], the “Zika virus replication in Vero cells treated with BSO” value in the assay with Zika virus [1] is given as “Zika virus replicates even in Vero cells treated with BSO”. For the same compound, in the assay with Zika virus [2], the “Zika virus replication on blockage of glutathione biosynthesis” value is “inhibition of Zika virus replication”. Also, the intracellular glutathione levels result in assay [3] is recorded as “undetectable levels”; in assay [5] (JEG-3 cells, BSO treatment, initial studies), “undetectable levels”. The “intracellular levels of glutathione” value in assay [4] is “undetectable”. Besides, the “intracellular GSH synthesis” value in assay [5] (Zika virus infected JEG-3 cells) is given as “blocked intracellular GSH synthesis”.
